# Legend:
# [1] = system: Staphylococcus epidermidis 35984 ™; assay: MIC, broth dilution method, dark condition; type: cell-based
# [2] = system: Staphylococcus aureus subsp. Aureus BAA-44 ™ (a MRSA strain); assay: MIC, broth dilution method, dark condition; type: cell-based; settings: Table 1 entry 8, 24 h
# Gram-negative bacteria = assay: Susceptibility of Gram-negative bacteria, dark condition; type: cell-based
# From the text: Under the dark condition RB is known to display antibacterial activity at high concentrations.
# [3] = system: biofilms of drug-resistant S. aureus 71080 (VRS8); assay: Biofilm eradication assay; type: cell-based, Staphylococcus aureus; settings: fluorescent and dark conditions; concentration-dependent
# From the text: (§1) Linezolid is not an effective drug in eradicating biofilms of Gram-positive bacteria, but has a beneficial effect in prevention of biofilm formations [Reiter et al., J. Med. Microbiol. 62:394-399 (2013)], and was used as a control.
# (§2) We confirm that RB is an excellent agent to eradicate biofilms of Gram-positive bacteria, including drug-resistant strains. […] These studies indicate that RB has the potential antibacterial agent to kill drug-resistant bacteria in any growth phases.
# [4] = system: biofilms of E. faecium NR-32065; assay: Biofilm eradication assay; type: cell-based, Enterococcus faecium; settings: fluorescent and dark conditions; concentration-dependent
# From the text: as §1, §2
# [5] = system: Staphylococcus aureus BR 5 (A methicillin and vancomycin resistant strain); assay: MIC, broth dilution method, dark condition; type: cell-based; settings: Table 1 entry 13, 24 h
# [6] = system: Staphylococcus aureus subsp. Aureus BAA-44 ™ (a MRSA strain); assay: MIC, agar dilution method; type: cell-based; settings: Table 2 fourth entry (printed 1), dark
# From the text: (§3) The MIC values of RB determined by the agar dilution method differed from those determined by the broth dilution method (Table 1). Selected examples of the MIC values determined by the agar dilution method are summarized in Table 2 shown by renumbering the assayed microbes.
# [7] = system: Staphylococcus aureus 6538 ™; assay: MIC, agar dilution method; type: cell-based; settings: Table 2 entry 3, dark
# From the text: as §3
# [8] = system: Bacillus subtilis ATCC6051; assay: MIC, agar dilution method; type: cell-based; settings: Table 2 entry 1, dark
# From the text: as §3
# Bacillus cereus 13061 ™ = assay: MIC, agar dilution method; type: cell-based; settings: Table 2 entry 2, dark
# From the text: as §3
# [9] = system: Mycobacterium smegmatis 607 ™; assay: MIC, agar dilution method; type: cell-based; settings: Mycolicibacterium smegmatis, Table 2 entry 5, dark
# From the text: as §3
# [10] = system: Enterococcus faecium BAA-2320; assay: MIC, broth dilution method, dark condition; type: cell-based; settings: BAA2320, Table 1 entry 19, 24 h
# Mycobacterial spp. = assay: Killing concentrations for five Mycobacterial spp.; type: cell-based, Mycobacterium spp.
# Method: Antibacterial activity of RB against 5 Mycobacterium spp. Was examined (entries 25-29). […] RB inhibited growth of Saccharomyces cerevisiae at higher concentrations than the bacteria under the dark condition (entry 30).
# RB kills Mycobacterial spp. At 12.5-25.0 mg/mL in illumination conditions, and at 25.0-50.0 mg/mL in dark conditions (Table 1). In both conditions, RB kills five Mycobacterial spp. At a slower rate than that of Gram-positive bacteria. RB seems to have low-permeability of mycobacterial cell walls. Due to rapid bactericidal effect of RB against Gram-positive bacteria even in the dark condition, generation of RB-resistant mutants of Gram-positive bacteria is an extremely difficult task.
# [11] = system: vancomycin-resistant S. aureus strains; settings: under either lighting condition (fluorescent or LED); entries 12-16
# Method: (§4) Minimum inhibitory concentrations (MICs) were determined by broth dilution microplate alamar blue assay or by OD measurement. All compounds were stored in DMSO or saline (1 mg/100 μL concentration). This concentration was used as the stock solution for all MIC studies. Each compound from stock solution was placed in the first well of a sterile 96 well plate and a serial dilution was conducted with the culturing broth (total volume of 10 μL). The bacterial suspension at log phase (190 μL) was added to each well (total volume of 200 μL), and was incubated for 24 h at 37° C. 20 μL of resazurin (0.02%) was added to each well and incubated for 4 h, (National Committee for Clinical Laboratory Standards (NCCLS) method (pink=growth, blue=no visible growth)). The OD measurements were performed for all experiments prior to performing colorimetric assays. The absorbance of each well was also measured at 570 and 600 nm via UV-Vis.
# [12] = system: Streptococcus pneumoniae 6301 ™; assay: MIC, broth dilution method, dark condition; type: cell-based
# [13] = system: Fusarium keratoplasticum-infected cornea; settings: one patient, cited from earlier work
# A. fumigattus = settings: three days of incubation, cited from earlier work
# [14] = system: Mycobacterium avium subsp. Avium 2285; assay: MIC, broth dilution method, dark condition; type: cell-based; settings: Table 1 entry 26, 24 h
# [15] = system: 7 methicillin-resistant S. aureus (MRSA) with different SCCmec types; assay: Bactericidal activity under fluorescent or LED light, MRSA panel; type: cell-based, Staphylococcus aureus; settings: under the fluorescent or LED light; Table 1 entries 5-11
# Method: as §4
smiles,measurement,setting,value
"O=C(O)c1c(Cl)c(Cl)c(Cl)c(Cl)c1-c1c2cc(I)c(=O)c(I)c-2oc2c(I)c(O)c(I)cc12 [RB, 4,5,6,7-tetrachloro-2′,4′,5′,7′-tetraiodofluorescein]",MIC,"[1]; Staphylococcus epidermidis, Table 1 entry 16, broth dilution, dark, 24 h",25 µg/mL
same,killing by RB,"[1]; aerobic condition, entry 16",effectively killed
same,MIC,[2],50 µg/mL
same,susceptibility of Gram-negative bacteria to RB,Gram-negative bacteria,not susceptible
same,viable cells in biofilm,[3],significantly reduced
same,viable cells in biofilm,[4],significantly reduced
same,MIC,[5],25 µg/mL
same,MIC,[6],50 µg/mL
same,MIC,[7],25 µg/mL
same,MIC,[8],125 µg/mL
same,MIC,Bacillus cereus 13061 ™,125 µg/mL
same,MIC,[9],50 µg/mL
same,MIC,[10],25 µg/mL
same,concentration at which RB kills Mycobacterial spp.,Mycobacterial spp.; dark conditions,25.0 to 50.0 mg/mL
same,concentration at which RB kills Mycobacterial spp.,Mycobacterial spp.; illumination conditions,12.5 to 25.0 mg/mL
same,concentration at which all vancomycin-resistant strains were killed,[11],below 1.0 μg/mL
same,MIC,"[12]; Streptococcus pneumoniae, Table 1 entry 24, broth dilution, dark, 24 h",> 100 µg/mL
same,susceptibility to RB,[12]; entry 24,showed resistance
same,time to resolution of pain post irradiation,"[13]; RB dripped on debrided cornea 30 minutes, 518 nm light 0.9 J/cm^2",36 h
same,decrease of infiltrate size in all directions,[13]; four days after treatment,approximately 1 mm
same,"Day 3 Growth Inhibition Percentage, RB + 518 nm Irradiation","A. fumigattus; 518 nm, 5.4 J/cm^2",79.8 ± 9 Percentage
same,"Day 3 Growth Inhibition Percentage, RB Only","A. fumigattus; dark, no irradiation",6.6 ± 0. Percentage
same,MIC,[14],50 µg/mL
same,concentration at which all MRSA strains were killed,[15],0.78 to 3.1 µg/mL

# Source: patent publication US12661335B2, “Halogenated xanthene-containing topical anti-gram-positive bacterial ophthalmic composition and method” (Provectus Pharmatech, Inc., priority 2021, dated 2026)
